Data published in US5101059A, “Amino acid protecting groups” (Research Corporation Technologies, Inc., priority 1989, dated 1992).

Key:
Type in all cases: physicochemical
[1] = Base deblocking of substituted urethanes (U-PCA) by various amines; conditions: dichloromethane, room temperature
Description: 1. General Procedure for Studying the Base Deblocking of the Urethanes Fmoc-PCA, BTS-Fmoc-PCA, DT-Fmoc-PCA, and TMS-Fmoc-PCA: A mixture of urethane (0.05 mmol) in a solution prepared from an equal volume of base (2.5 mmol, 50 eq.) and dichloromethane was stirred at room temperature. The course of the reaction was monitored by TLC with an eluant consisting of Skelly B--ether (3:1).

[2] = Protolysis of BTS-Fmoc-PCA in trifluoroacetic acid; conditions: TFA 10.7 eq., CH2Cl2, room temperature, 12 hours
Experimental: 4. Protolysis of 2,7-Bis(trimethylsilyl)-9-fluoroenylmethyl p-Chlorocarbanilate in Trifluoroacetic Acid: To a solution of 0.3 g of BTS-Fmoc-PCA in 8 mL of CH2 Cl2 was added dropwise a solution of 0.5 mL (10.7 eq.) of trifluoroacetic acid in 3.0 mL of methylene chloride over a period of 10 minutes. The mixture was stirred at room temperature for 12 hours, washed with water (2×10 mL), and neutralized with sat'd NaHCO3 (2×10 mL). […] Recrystallization from EtOAc--Skelly B (2:1) gave 0.16 g (75.3%) of the pure urethane as colorless needles, m.p. 184°-185° C., identified by mixture melting point, and IR and NMR spectral comparisons with an authentic sample.

[3] = Stability of substituted Fmoc-PCA in acetic acid; conditions: glacial acetic acid 10 eq., CH2Cl2, room temperature, 48 hours
Experimental: 2. […] The mixture was stirred at room temperature for 48 hours. […] The mixture was washed with half sat'd NaHCO3 (2×10 mL) and water (10 mL). […] 161°-163° C., the IR and ^1 H NMR spectra of which matched that of an authentic sample.
3. Stability of 9-Trimethylsilyl-9-[…] p-Chlorocarbanilate in Acetic Acid: To a solution of 0.37 g of TMS-Fmoc-PCA in 10 mL of CH2 Cl2 was added 0.5 mL (10 eq.) of glacial acetic acid. The mixture was stirred at room temperature. […] The mixture was washed with half sat'd NaHCO3 (2×10 mL) and H2 O (10 mL). […] 124°-126° C., the ^1 H NMR and IR spectra of which matched that of an authentic sample.

[4] = Stability of FM-Fmoc-aniline towards catalytic hydrogenolysis; conditions: 5% Pd/C, 45 psi hydrogen, 24 hours
Experimental: E. Stability of FM-Fmoc-aniline Towards Catalytic Hydrogenolysis: To a mixture of 100 mg of FM-Fmoc-aniline and 63.9 mg of Fmoc-aniline in 30 mL of freshly distilled THF and 15 mL of 100% EtOH was added 30 mg of 5% palladium on charcoal. The mixture was shaken under hydrogen at a pressure of 45 psi in a Parr apparatus for 24 hours. […] Recrystallization of the latter from ethyl acetate gave 89.1 mg (89.1%) of the pure FM-Fmoc-anilineas white crystals, m.p. 243°-244° C. the ^1 H NMR and IR spectra of which matched that of an authentic sample.

[5] = Stability of difluorenyl derivatives in trifluoroacetic acid; conditions: TFA 500 eq.
Experimental: C. Stability of FM-Fmoc-analine in Trifluoroacetic Acid: To a solution of 51.3 mg of FM-Fmoc-analine in 6 mL of CHCl3 was added 4 mL (500 eq.) of trifluoroacetic acid. The mixture was stirred at room temperature and monitored by TLC with an eluant consisting of Skelly B--ether (2:1). No change was noted after two days. The mixture was diluted with 10 mL of chloroform, and washed with H2 O (2×15 mL) and sat'd NaHCO3 (2×15 mL). […] 241°-243° C., the ^1 H NMR and IR spectra of which matched that of an authentic sample.
D. Stability of Bis(9-fluorenyl)methyl Carbanilate Towards Trifluoroacetic Acid: To a solution of 100 mg of α-F-Fmoc-analine in 12 mL of chloroform was added 8 mL (500 eq.) of trifluoroacetic acid. The mixture was stirred at room temperature and monitored by TLC with an eluant consisting of Skelly B--ether (2:1). No change was noted after 24 hours. The mixture was washed with water (2×10 mL), sat'd NaHCO3 (3×10 mL), and water (10 mL). […] 223°-226° C. (dec.), the ^1 H NMR and IR spectra of which matched that of an authentic sample.

[6] = HPLC monitoring of the deblocking of Nε-(9-xanthenylmethoxycarbonyl)-L-lysine by TBD; conditions: TBD 20 eq., pyridine and DMF, room temperature
Experimental: B. HPLC Monitoring of the Deblocking of N^ε -(9-Xanthenylmethoxycarbonyl)-L-lysine by TBD: A mixture of […] of H-Lys(Xmoc)-OH and 150 mg (20 eq.) of 1,5,9-triazabicyclo[4,4,0]dec-5-ene (TBD) in 0.3 mL of pyridine and 0.3 mL of DMF was stirred at room temperature. A 20 μL portion of the mixture was neutralized with a solution of 0.3 mL of 5% HCl and 0.3 mL of methanol, filtered, and injected for HPLC analysis which was carried out on a Waters Radial Pak 10-μm C18 reverse phase column (0.8×10 cm) under the following conditions:
Mobile phase: 65% methanol and 35% TFA (0.1% in water)

[7] = Piperidine deblocking of bis(9-fluorenyl)methyl carbanilate; conditions: piperidine 48.5 eq., anhydrous ether, room temperature
Experimental: B. Piperidine Deblocking of Bis(9-fluorenyl)methyl Carbanilate: To a suspension of 20 mg (0.042 mmol) of αF-Fmoc-analine in 0.2 mL of anhydrous ether was added 0.2 mL (2.02 mmol, 48.5 eq.) of piperidine. The mixture was stirred at room temperature and monitored by TLC with an eluant consisting of Skelly B--CH2 Cl2 (1:1). […] No attempt was made to isolate the individual component of the final reaction mixture.

[8] = CHCl3, room temperature, two days
[9] = chloroform, room temperature, 24 hours

C[Si](C)(C)c1ccc2c(c1)C(COC(=O)Nc1ccc(Cl)cc1)c1cc([Si](C)(C)C)ccc1-2 [BTS-Fmoc-PCA, 2,7-Bis(trimethylsilyl)-9-fluorenylmethyl p-Chlorocarbanilate]
Time for Complete Deblocking ([1]; ethanolamine 50 eq.): 90 min
Time for Complete Scavenging of Dibenzofulvene Analogs ([1]; morpholine 50 eq.): 3.5 hr
Time for Complete Deblocking ([1]; morpholine 50 eq., significant aminodibenzofulvene type adduct formed): 190 min
Time for Complete Scavenging of Dibenzofulvene Analogs ([1]; piperidine 50 eq.): 40 min
Time for Complete Deblocking ([1]; piperidine 50 eq., significant aminodibenzofulvene type adduct formed): < 3 min
Time for Complete Deblocking ([1]; t-butylamine 50 eq.): 270 min
product of protolysis in trifluoroacetic acid [2]: 9-fluorenylmethyl p-chlorocarbanilate
recovered urethane [3]: 95.35%
stability in acetic acid (TLC) [3]: no change

O=C(Nc1ccccc1)OCC1(CC2c3ccccc3-c3ccccc32)c2ccccc2-c2ccccc21 [FM-Fmoc-aniline, 9-(9'-Fluorenylmethyl)-9-fluorenylmethyl Carbanilate]
recovered urethane [4]: 99.4%
recovered urethane [5, 8]: 97.1%
stability in trifluoroacetic acid (TLC) [5, 8]: No change

N[C@@H](CCCCNC(=O)OCC1c2ccccc2Oc2ccccc21)C(=O)O [H-Lys(Xmoc)-OH, N^ε -(9-Xanthenylmethoxycarbonyl)-L-lysine]
time after which no starting material was left (HPLC) [6]: ≤ 4.5 h

O=C(Nc1ccccc1)OC(C1c2ccccc2-c2ccccc21)C1c2ccccc2-c2ccccc21 [α-F-Fmoc-aniline, Bis(9-fluorenyl)methyl Carbanilate]
recovered urethane [5, 9]: 98.3%
stability in trifluoroacetic acid (TLC) [5, 9]: No change
time for total decomposition of the urethane [7]: ≤ 10 min
